Measurements reported in article PMC7442270, “Phase 3 Trial of a Small-volume Subcutaneous 6-Month Duration Leuprolide Acetate Treatment for Central Precocious Puberty” (The Journal of Clinical Endocrinology and Metabolism, 2020).

Assay: clinical
Parameters: species or system children with CPP
Conditions: human, in vivo, sc, 45 mg
Protocol: All samples were processed by a central laboratory (Syneos Health [formerly […] Health Clinique Inc.], Canada). A validated bioanalytical LC-MS/MS method with an LLOD of 0.025 ng/mL was used to measure serum leuprolide concentrations.

Cmax: 212 ng/mL
level at 672 h: 0.63 ng/mL
AUC (burst phase): 938 ng·h/mL
AUC (plateau phase): 42300 ng·h/mL
Tmax (T max, burst phase (time at which the Cmax is observed)): 3.7 h
Tmax (Time after injection at which leuprolide levels peaked): 4 h
Structure (SMILES): CCNC(=O)[C@@H]1CCCN1C(=O)[C@H](CCCNC(=N)N)NC(=O)[C@H](CC(C)C)NC(=O)[C@@H](CC(C)C)NC(=O)[C@H](Cc1ccc(O)cc1)NC(=O)[C@H](CO)NC(=O)[C@H](Cc1c[nH]c2ccccc12)NC(=O)[C@H](Cc1c[nH]cn1)NC(=O)[C@@H]1CCC(=O)N1 [leuprolide]
